What was measured:
[1] = test system: LL/2 cells; assay: LL/2 mouse lung cancer model in C57BL mice; type: in vivo; details: 30 mg/kg, daily, oral gavage, 4 weeks
Experimental: C57BL mice (n=5) are injected subcutaneously with LL/2 cells. After tumors reach around 5 mm in size, the mice are treated with either buffer (PBS) or 6J1 (30 mg/kg, daily, oral gavage) for 4 weeks. After 4 weeks, primary tumors and lungs are collected for analysis (FIGS. 16a and 16b). Tumor volumes are measured daily (p<0.001) in FIG. 16c.

[2] = test system: PD-L1; assay: PD-L1 colocalization imaging in PD-L1-GFP HeLa cells; type: cell-based; details: 1 μM, 24 h
Experimental: Next, inventors assess if 6J1 can compromise PD-L1 trafficking. PDL1-GFP stable expressing HeLa cells are treated with or without 6J1 (1 μM) for 24 h. Cells are fixed and stained with Rab5 or EEA1. Their quantifications of the colocalization are shown in FIGS. 4d and 4e, respectively. […] Inventors thus further quantify cell membrane PD-L1 levels in live cells treated with or without 6J1 by flow cytometry or confocal imaging.
It has previously been shown that interfering with endosomal trafficking promotes exosome secretion. Moreover, PD-L1 has been reported to be enriched in exosomes and secreted outside the cell. Thus, inventors speculate that 6J1 may induce the secretion of the PD-L1 trapped in the endosomal compartments via exosomes. To determine whether 6J1 may induce the secretion of PD-L1 via exosomes, HeLa cells are treated with or without 6J1 (1 μM) for 24 h. The supernatant is collected. Inventors purify the exosomes from the supernatant of HeLa cells by sequential centrifugation. The concentration of extracellular vesicle is determined using a Nanosight nanoparticle analyzer. And HeLa cells are treated with or without 6J1 (1 μM) for 48 h. The cell and supernatant are collected for Western Blot analysis. […] Moreover, the activity of Rab27a in HeLa cells treated with or without 6J1 (1 μM) is examined with a GST-SHD pulldown assay.
(§1) HeLa cells are treated with or without 6J1. After 6 h, cells are collected for western blot analysis of LC3 and p62. […] In addition, ATG5-knockout HeLa cells are transfected with PD-L1-GFP and LC3-RFP, and then treated with or without 6J1 (1 μM) for 24 h. Cells are fixed and imaged. […] Furthermore, LC3B-knockout HeLa cells are transfected with PD-L1-GFP, and then treated with or without 6J1 (1 μM) for 24 h. Cells are fixed and stained with antibodies against Rab5 (FIG. 6d) or Rab27a (FIG. 6e).

[3] = test system: LC3 and p62; assay: Autophagy readouts: LC3/p62 western blot and GFP-RFP-LC3 puncta in HeLa cells; type: cell-based; details: 6 h
Experimental: as §1

[4] = test system: B16-F10 cells; assay: B16-F10 melanoma model in C57BL/6J mice; type: in vivo, mouse; details: 30 mg/kg, daily, oral gavage, 4 weeks
Experimental: Inventors also examine the anti-cancer effect of 6J1 in a melanoma xenograft mouse model, by the subcutaneous injection of B16-F10 cells in syngeneic C57BL mice. B16-F10 cells are subcutaneously injected into the flank of female C57BL/6J mice. The mice are randomly divided (n=6 per group). They are treated with either buffer or 6J1 (30 mg/kg, daily, oral gavage) after tumors reach around 5 mm for 4 weeks. After 4 weeks, the primary tumors are collected for analysis. […] In addition, a flow cytometry-based quantification of the levels of plasma membrane PD-L1 in the primary tumor is performed in FIG. 15e. […] In B16-F10 tumors, fold change of CD3+CD8+ T-cell populations, and percentage of intracellular IFN-γ in the isolated tumor-infiltrating lymphocytes (TILs) are determined by flow cytometry analysis in FIGS. 15f and 15g.

[5] = test system: 4T1 cells; assay: Extracellular vesicle concentration, Nanosight nanoparticle analyzer, 4T1 cells; type: cell-based, mouse; details: 1 μM
Experimental: The current PD-L1 and PD1 therapies apply PD-L1 or PD1 monoclonal antibodies to block the PD-L1/PD1 signaling, which results in cytotoxic T cells recognizing and killing the tumor cells. […] First, flow cytometry-based quantification of plasma membrane levels of PD-L1 in 4T1 cells treated with or without 6J1 (1 μM) for 24 h. 4T1 cells are treated with or without 6J1 (1 μM) for 24 h. The supernatant is collected, and the concentration of extracellular vesicle is determined using a Nanosight nanoparticle analyzer in FIG. 8b. The exosomes are also collected and subjected to western blot analysis of the EVs marker and PD-L1 in FIG. 8c.
To assess whether the in vivo antitumor growth effect of 6J1 is related to its effect on PD-L1 in 4T1 cells, inventors knock out PD-L1 via CRISPR/Cas9 in 4T1 cells (FIG. 10a). 4T1-NC or 4T1-PD-L1 knockout cells are treated with or without 6J1 (1 μM) for 24 h. The supernatant is collected, and the concentration of extracellular vesicle is determined using a Nanosight nanoparticle analyzer. The exosomes are also collected and subjected to western blot analysis of the EVs marker and PD-L1. […] Inventors then transplant control or PD-L1-knockout 4T1 cells into the fat pad of syngeneic female Balb/c mice. The mice are randomly divided (n=5 per group) and treated with either buffer or 6J1 (30 mg/kg, daily) via oral gavage.
Therefore, it is possible that the increased exosomal PD-L1 secretion induced by 6J1 may still suppress the tumor-infiltrating T cell cytotoxicity in vivo, even though 6J1 reduces the cell surface expression level of PD-L1 on the tumor cells. To evaluate the role of exosomal PD-L1 in the tumor microenvironment and tumor progression in mice, inventors knock out Rab27a in 4T1 cells to inhibit the secretion of exosomes. 4T1-shNC or 4T1-shRab27A cells are treated with or without 6J1 (1 μM). The supernatant is collected, and the concentration of extracellular vesicle is determined using a Nanosight nanoparticle analyzer. […] Inventors analyze the plasma membrane levels of PD-L1 in 4T1-shNC or 4T1-shRab27A cells treated with or without 6J1 (1 μM). […]

[6] = GFP-RFP-LC3-expressing HeLa cells, 1 μM

How did the “tumor growth of mouse lung cancer” value [1] turn out when OCCOCCN(c1ccccc1)c1nc(N/N=C/c2cccc(I)c2)nc(N2CCOCC2)n1 [Compound 6J1] was run?
Its value is “significantly inhibits the tumor growth of mouse lung cancer”.

And the “6J1-induced PD-L1 puncta” value ([2]; ATG5-knockout HeLa cells)?
The value was “no effect on 6J1-induced PD-L1 puncta”.

And the “PD-L1/LC3B colocalization in 6J1-treated cells” value ([2]; ATG5-knockout HeLa cells)?
The value was “abolishes this colocalization between PD-L1 and LC3B”.

What about the “6J1-induced PD-L1 puncta and PD-L1 colocalization with RAB5 or RAB27A” value ([2]; LC3B-knockout HeLa cells) of the same compound?
Its value is “LC3B knockout does not affect”.

What about the “accumulation of PD-L1 in vesicles colocalized with early endosome markers EEA1 and RAB5” value ([2]; PD-L1-GFP HeLa cells) of the same compound?
The value was “clearly induces the accumulation of PD-L1 within vesicle-like structures in the cytoplasm”.

What about the “colocalization between PD-L1 and RAB11 (recycling endosome marker)” value ([2]; PD-L1-GFP HeLa cells) of the same compound?
Its value is “markedly decreases the colocalization between PD-L1 and RAB11”.

And the “colocalization of PD-L1 with exosomal markers TSG101, CD63, Rab27A” value ([2]; PD-L1-GFP HeLa cells)?
Its value is “significantly induces the colocalization of PD-L1 with the exosomal markers”.

What about the “colocalization of PD-L1-containing vesicles with LC3B puncta” value ([2]; control HeLa cells with PD-L1-GFP and LC3-RFP) of the same compound?
Its value is “strongly colocalized with LC3B puncta”.

What about the “formation of yellow LC3B puncta” value [3, 6] of the same compound?
Its value is “significantly induces the formation of yellow LC3B puncta”.

What about the “red-only LC3B puncta” value [3, 6] of the same compound?
Its value is “no red-only LC3B puncta are observed”.

What about the “level of LC3B-II and P62” value ([3]; HeLa cells, western blot) of the same compound?
Its value is “markedly induced an increase in the level of LC3B-II and P62”.

And the “animal's body weight” value [4]?
The value was “without affecting the animal's body weight”.

What about the “expression of IFN-γ in tumor-infiltrating lymphocytes” value [4] of the same compound?
The value was “only subtly increases the expression of IFN-γ”.

What about the “growth of B16-F10 tumors” value [4] of the same compound?
Its value is “markedly inhibits the growth of B16-F10 tumors”.

And the “levels of PD-L1 at the cell surface of the primary tumors” value [4]?
The value was “significantly decreases the levels of PD-L1 at the cell surface of the primary tumors”.

And the “percentage of tumor-infiltrating CD8+ T cell populations” value [4]?
Its value is “markedly increases the percentage of tumor-infiltrating CD8+ T cell populations”.

And the “6J1-induced EVs secretion” value ([5]; 4T1-shRab27A cells)?
Its value is “significantly inhibits 6J1-induced EVs secretion”.

And the “6J1-induced EVs secretion” value ([5]; PD-L1-knockout 4T1 cells, 24 h)?
The value was “does not affect 6J1-induced EVs secretion”.

— US11986482B2, “Method of promoting antitumor or anti-cancer immunity” (City University of Hong Kong, priority 2021, dated 2024)
